Laboratory results reported in patent US4214091A, “Antibiotic No. 2-200 and process for producing thereof” (Chugai Seiyaku Kabushiki Kaisha, priority 1977, dated 1980).
Where two headings read alike, the source gives them in different places.

Experiments:
Assay in all cases: MIC by agar plate dilution method
Type in all cases: cell-based
Bacillus cereus = details: 37° C., 24 hours
Procedure: (§1) The test organisms were incubated by agar plate dilution method at 37° C. for 24 hours, after which their growth was observed. The test organisms were incubated on an NB medium (product of Eiken Kagaku) at 37° C. overnight, and each culture obtained was diluted 10^3 - to 10^4 -fold and stamped on an agar plate. The following agar plate media were used:
(§2) NA: nutrient agar (product of Eiken Kagaku)
(§3) NA+G6P: glucose-6-phosphoric acid (50 μg/ml) plus nutrient agar
(§4) Anti-3A: antibiotic medium No. 3 agar (product of Difco)
(§5) MHA: Mueller Hinton Agar (product of Eiken Kagaku)

[1] = test system: Bacillus subtilis PCI-219; details: 37° C., 24 hours
Procedure: as §1, §2, §3, §4, §5

Bacillus thuringensis = details: 24 h, 37° C., read-out: Minimum inhibitory concentration
Procedure: as §1, §2, §3, §4, §5

Escherichia coli No. 9 = details: NO.9, 24 h, 37° C., read-out: Minimum inhibitory concentration
Procedure: as §1, §2, §3, §4, §5

[2] = test system: Klebsiella pneumoniae 15c; details: 24 h, read-out: Minimum inhibitory concentration
Procedure: as §1, §2, §3, §4, §5

[3] = test system: Klebsiella pneumoniae 3K25; details: 3K25, 24 h, 37° C., read-out: Minimum inhibitory concentration
Procedure: as §1, §2, §3, §4, §5

Proteus mirabilis 1287 = details: 37° C., 24 hours
Procedure: as §1, §2, §3, §4, §5

Proteus mirabilis 9' = details: 24 h, 37° C., read-out: Minimum inhibitory concentration
Procedure: as §1, §2, §3, §4, §5

[4] = test system: Pseudomonas aeruginosa G-75; details: 37° C., 24 hours
Procedure: as §1, §2, §3, §4, §5

[5] = test system: Pseudomonas aeruginosa J-272; details: 37° C., 24 hours
Procedure: as §1, §2, §3, §4, §5

[6] = test system: Salmonella enteritidis T-1; details: Salmonella enterica, 24 h, 37° C., read-out: Minimum inhibitory concentration
Procedure: as §1, §2, §3, §4, §5

Salmonella paratyphi A = details: Salmonella enterica, 24 h
Procedure: as §1, §2, §3, §4, §5

Salmonella typhi TANAKA = details: Salmonella enterica, 24 h
Procedure: as §1, §2, §3, §4, §5

Sarcina lutea = details: Micrococcus luteus
Procedure: as §1, §2, §3, §4, §5

[7] = test system: Serratia marrcescens FU-111; details: FU111, 24 h, read-out: Minimum inhibitory concentration
Procedure: as §1, §2, §3, §4, §5

[8] = test system: Serratia marrcescens T-50; details: for MIC: Serratia
Procedure: as §1, §2, §3, §4, §5

Shigella flexneri 2b = details: 24 h, 37° C., read-out: Minimum inhibitory concentration
Procedure: as §1, §2, §3, §4, §5

Shigella sonnei = details: 24 h, 37° C., read-out: Minimum inhibitory concentration
Procedure: as §1, §2, §3, §4, §5

[9] = test system: Staphylococcus aureus 209P; details: 24 h, 37° C., read-out: Minimum inhibitory concentration
Procedure: as §1, §2, §3, §4, §5

[10] = test system: Staphylococcus aureus 222; details: Staphylococcus aureus, 222, 24 h, 37° C., read-out: Minimum inhibitory concentration
Procedure: as §1, §2, §3, §4, §5

[11] = test system: Staphylococcus aureus A-5; details: A5, 24 h, 37° C., read-out: Minimum inhibitory concentration
Procedure: as §1, §2, §3, §4, §5

[12] = test system: Staphylococcus aureus JU-5; details: JU5, 24 h, 37° C., read-out: Minimum inhibitory concentration
Procedure: as §1, §2, §3, §4, §5

[13] = test system: Staphylococcus epidermidis T0-3; details: T03, 24 h, 37° C., read-out: Minimum inhibitory concentration
Procedure: as §1, §2, §3, §4, §5

[14] = NA + G6P (50 μg/ml), 37° C., 24 hours
[15] = read-out: Minimum inhibitory concentration, Anti-3A, 37° C.
[16] = read-out: Minimum inhibitory concentration, MHA, 37° C.
[17] = read-out: Minimum inhibitory concentration, NA + G6P (50 μg/ml), 37° C.
[18] = read-out: Minimum inhibitory concentration, NA, 37° C.

C=CC(C)=CC1(C)SC(=O)C(C)=C1O (single isomer, unassigned) [No. 2-200]
6.25 µg/mL: Minimum inhibitory concentration ([4]; Anti-3A) | Minimum inhibitory concentration ([4]; MHA) | Minimum inhibitory concentration ([4]; NA + G6P (50 μg/ml)) | MIC ([4]; Pseudomonas aeruginosa, G75, NA, read-out: Minimum inhibitory concentration) | MIC ([6]; NA + G6P (50 μg/ml)) | MIC ([6]; NA) | MIC [7] | MIC (Shigella flexneri 2b; NA + G6P (50 μg/ml)) | MIC (Shigella flexneri 2b; NA)
25 µg/mL: MIC (Bacillus thuringensis; NA + G6P (50 μg/ml)) | MIC (Sarcina lutea; MHA, 37° C., 24 hours, read-out: Minimum inhibitory concentration) | MIC ([7]; Anti-3A, 37° C., 24 hours) | MIC ([9]; Anti-3A) | MIC ([11]; Anti-3A) | MIC ([11]; NA + G6P (50 μg/ml))
12.5 µg/mL: MIC [2] | MIC (Salmonella typhi TANAKA; [15]) | MIC (Salmonella typhi TANAKA; [17]) | MIC (Salmonella typhi TANAKA; [18]) | MIC (Sarcina lutea; 24 h, read-out: Minimum inhibitory concentration, Anti-3A, 37° C.) | MIC (Sarcina lutea; 24 h, read-out: Minimum inhibitory concentration, NA + G6P (50 μg/ml), 37° C.) | MIC (Sarcina lutea; 24 h, read-out: Minimum inhibitory concentration, NA, 37° C.) | MIC ([8]; T50, 24 h, read-out: Minimum inhibitory concentration, Anti-3A, 37° C.)
1.56 µg/mL: MIC ([8]; T50, 24 h, read-out: Minimum inhibitory concentration, MHA, 37° C.) | MIC (Shigella flexneri 2b; MHA)
> 400 µg/mL: Minimum inhibitory concentration ([5]; Anti-3A) | Minimum inhibitory concentration ([5]; MHA) | Minimum inhibitory concentration ([5]; NA + G6P (50 μg/ml)) | MIC ([5]; Pseudomonas aeruginosa, J272, NA, read-out: Minimum inhibitory concentration) | MIC ([10]; Anti-3A) | MIC ([10]; NA) | MIC ([12]; Anti-3A) | MIC ([12]; NA)
> 50 µg/mL: MIC ([9]; NA)
100 µg/mL: MIC (Escherichia coli No. 9; Anti-3A) | MIC [2, 14] | MIC ([2]; NA, 37° C., 24 hours) | MIC ([3]; NA + G6P (50 μg/ml)) | MIC (Proteus mirabilis 9'; Anti-3A) | MIC (Shigella sonnei; Anti-3A) | MIC (Shigella sonnei; NA + G6P (50 μg/ml)) | MIC (Shigella sonnei; NA) | MIC ([10]; MHA) | MIC ([12]; MHA) | MIC ([13]; Anti-3A)
200 µg/mL: MIC ([3]; NA) | MIC (Proteus mirabilis 9'; MHA)
≥ 50 µg/mL: MIC ([9]; NA + G6P (50 μg/ml))
50 µg/mL: Minimum inhibitory concentration (Bacillus cereus; Anti-3A) | MIC (Bacillus cereus; Bacillus cereus, NA, read-out: Minimum inhibitory concentration) | Minimum inhibitory concentration (Bacillus cereus; MHA) | Minimum inhibitory concentration (Bacillus cereus; NA + G6P (50 μg/ml)) | Minimum inhibitory concentration ([1]; Anti-3A) | MIC ([1]; Bacillus subtilis, PCI219, NA, read-out: Minimum inhibitory concentration) | Minimum inhibitory concentration ([1]; MHA) | Minimum inhibitory concentration ([1]; NA + G6P (50 μg/ml)) | MIC (Bacillus thuringensis; Anti-3A) | MIC (Bacillus thuringensis; MHA) | MIC (Bacillus thuringensis; NA) | MIC (Escherichia coli No. 9; MHA) | MIC (Escherichia coli No. 9; NA + G6P (50 μg/ml)) | MIC (Escherichia coli No. 9; NA) | MIC ([2]; Anti-3A, 37° C., 24 hours) | MIC ([3]; Anti-3A) | MIC ([3]; MHA) | Minimum inhibitory concentration (Proteus mirabilis 1287; Anti-3A) | Minimum inhibitory concentration (Proteus mirabilis 1287; MHA) | Minimum inhibitory concentration (Proteus mirabilis 1287; NA + G6P (50 μg/ml)) | MIC (Proteus mirabilis 1287; Proteus mirabilis, 1287, NA, read-out: Minimum inhibitory concentration) | MIC (Proteus mirabilis 9'; NA + G6P (50 μg/ml)) | MIC (Proteus mirabilis 9'; NA) | MIC (Salmonella paratyphi A; [15]) | MIC (Salmonella paratyphi A; [17]) | MIC (Salmonella paratyphi A; [18]) | MIC [7, 14] | MIC ([7]; NA, 37° C., 24 hours) | Minimum inhibitory concentration [8, 14] | MIC ([8]; T50, NA, 37° C., 24 hours, read-out: Minimum inhibitory concentration) | MIC (Shigella sonnei; MHA) | MIC ([9]; MHA) | MIC ([11]; MHA) | MIC ([11]; NA) | MIC ([13]; MHA) | MIC ([13]; NA + G6P (50 μg/ml)) | MIC ([13]; NA)
≥ 400 µg/mL: MIC ([10]; NA + G6P (50 μg/ml)) | MIC ([12]; NA + G6P (50 μg/ml))
3.12 µg/mL: MIC ([6]; Anti-3A) | MIC ([6]; MHA) | MIC (Salmonella paratyphi A; [16]) | MIC (Salmonella typhi TANAKA; [16]) | MIC (Shigella flexneri 2b; Anti-3A)
